# In patent US6265445A, “Antiarrhythmic compounds” (priority 1997, dated 2001):
# Where a name gives a salt, the structure may show the parent alone. Read-outs that look alike come from different tables or passages of the source.
# Legend:
# [1] = tested on: isolated right ventricular trabecule of dog heart; assay: Extracellular electrophysiological measurements: impulse conduction time and effective refractory period; set-up: species or system mongrel dogs; conditions: for activation at 30 µM / activation at 10 µM: Canis lupus familiaris
# Method: Right ventricular trabecules were prepared from the heart of mongrel dogs (weighing 5 to 10 kg each). The surviving heart pieces were placed into an organ bath (37° C.) containing modified Tyrode's nutrient medium and excited by point stimulation with a basal frequency of 1 Hz. Extracellular bipolar platinum electrodes were placed on the surface of the preparations, by means of which the propagation of the superficial potentials were registered; thus, the determination of the time of impulse conduction or the rate of impulse conduction, respectively, and the effective refractory period (ERP) became possible. During our experiments,the frequency of stimulation was temporarily varied from 0.5 Hz up to 3 Hz. The tested compounds were directly added to the organ bath after dilution of the stock solution according to the desired final concentration.
# [2] = tested on: arrhythmias following coronary artery occlusion in conscious rats; assay: Occlusion arrhythmia following acute coronary artery ligation in conscious rats; assay type: in vivo, male rats; conditions: for Occurrence of arrhythmias: Brady / Occurrence of arrhythmias: Free (no arrhythmia was observed) / Occurrence of arrhythmias: Other / Occurrence of arrhythmias: VF / Occurrence of arrhythmias: VT: first 15 minutes; for Arrhythmia Score: score system from 0 to 6
# From the text: The method used is essentially in agreement with the method of Lepran et al. [J. Pharmacol. Methods 9, pp. 219-230 (1983)].
# During a previous operation, male rats weighing 340 to 360 g each were fitted with a loose surgical thread loop around the left descending coronary vessel, at about 2 mm from its origin. The ends of the loop thread were led out from the chest under the skin, then the surgical wound was closed. After complete recovery from this previous operation (7 to 8 days) acute myocardial ischaemia was induced by contracting the loose ligation in the conscious, freely moving animals. ECG was continuously registered by using bipolar chest electrodes before the ligation of the coronary artery and during the first 15 minutes of ischaemia. The ratio of survivals was determined and the developed arrhythmias were evaluated according to the Lambeth Convention [Walker et al.: Cardiovasc. Res. 22, 447-455 (1988)]. For evaluation of the arrhythmic episodes a score system was also employed by considering the severity of episodes on the basis of a score system from 0 to 6. Both d-sotalol and the substance of Example 15, respectively, were suspended in 1% methylcellulose and administered orally through a gastric sound at 1 hour before the compression of the coronary vessel. The control animals received a treatment with the same volume, i.e. 5 ml/kg of vehicle.
# [3] = treatment group; cited from earlier work
# [4] = tested on: occlusion and reperfusion arrhythmias in anaesthetized dogs; assay: Occlusion and reperfusion arrhythmias following acute coronary ligation in anaesthetized dogs; assay type: in vivo, mongrel dogs; conditions: 3 mg/kg i.v.
# Method: The method used is essentially in agreement with the method of Vegh et al. [Basic Res. Cardiol. 82, 159-171 (1987)].
# Mongrel dogs of both sexes weighing 10 to 20 kg each were anaesthetized by a mixture of chloralose (60 mg/kg) and urethane (200 mg/kg) and the animals were maintained on artificial respiration. After opening the chest, the ramus descendens anterior (LAD) branch of the left coronary artery of heart was prepared from the first main collateral branch and a loose loop from surgical thread was placed around it. During our experiments, the blood pressure of the animal was measured by using a cannule introduced to the left femoral artery and even the standard ECG parameters by using needle electrodes were continuously registered. The arrhythmias were induced by the occlusion for 25 minutes of a loop placed round the LAD. The survival after lethal arrhythmias and frequency of the arrhythmias were registered. The 28 dogs used in the experiments were divided into three groups. The compound of Example 15 was administered in a dose of 1 mg/kg to 8 animals; d-sotalol was given in a dose of 3 mg/kg to 10 animals by a single intravenous injection 10 minutes before compression of the coronary vessel. The control dogs (10 animals) received 5 ml of physiological saline solution in the same manner as the treated animals.
# By using this method it can be stated whether the substance investigated would be effective for protection against arrhythmias following the ligation of the coronary artery.
# [5] = tested on: right ventricular papillary muscle of dogs; assay: Intracellular microelectrode technique: action potential parameters, ventricular papillary muscle; set-up: species or system mongrel dogs; conditions: for Trecovery (recovery time constant of Vmax): Gy: kinetics of rapid restoration
# Method: The method used is essentially in agreement with the method of Papp et al. [J. Cardiovascular Pharmacol. Ther. 1, 287-296 (1996)].
# Right ventricular papillary muscle and Purkinje's fibres were prepared from the hearts of mongrel dogs (weighing 5 to 10 kg each). The preparations were placed into an organ bath (37° C.) containing modified Tyrode's nutrient medium. The preparations were excited by a basal frequency of 1 Hz. During the experiments, the frequency of stimulation was varied under broad limits by a computer-guided stimulator. The intracellular action potentials were registered by using glass capillary microelectrodes filled with 3 N potassium chloride solution (standard intracellular microelectrode techniques). The resting potential (RP), the amplitude of the action potential (APA) as well as the duration of the action potential (APD) were measured by using an IBM 386 compatible computer by means of an own-developed software. The compounds under test were directly added into the organ bath after dilution of the stock solutions according to the final concentrations desired. The effects of the compounds were observed after an incubation time of 30 to 40 minutes.
structure (smiles),measurement,setting,value
"CC(C)NCC(O)c1ccc(NS(C)(=O)=O)cc1 (single isomer, unassigned) [d-Sotalol, d-N-[4-[1-hydroxy-2-(1-methylethylamino)ethyl]phenyl]methanesulfonamide hydrochloride]",activation at 30 µM,"[1]; 1 Hz, read-out: Prolongation (%) of ERP",12.4%
same,activation at 30 µM,"[1]; 1 Hz, read-out: Prolongation (%) of impulse conduction time",-4.5 ± 5.1%
same,activation at 30 µM,"[1]; 3 Hz, read-out: Prolongation (%) of ERP",7.1%
same,activation at 30 µM,"[1]; 3 Hz, read-out: Prolongation (%) of impulse conduction time",-3.7 ± 4.7%
same,effect on effective refractory period (in words),[1]; concentrations of Table 1,showed a considerable effect only on the ERP
same,antiarrhythmic effect (in words),[2]; oral administration,proved to be inactive
same,Survival 15 minutes,[2]; p.o. 25 mg/kg,2/29
same,Survival 16 hours,[2]; p.o. 25 mg/kg,2/29
same,Occurrence of arrhythmias: Brady,[2]; p.o. 25 mg/kg,2/29
same,Occurrence of arrhythmias: Free (no arrhythmia was observed),[2]; p.o. 25 mg/kg,0/0
same,Occurrence of arrhythmias: Other,[2]; p.o. 25 mg/kg,3/43
same,Occurrence of arrhythmias: VF,[2]; p.o. 25 mg/kg,7/100
same,Occurrence of arrhythmias: VT,[2]; p.o. 25 mg/kg,7/100
same,Arrhythmia Score,[2]; p.o. 25 mg/kg,5.71 ± 0.18
same,Survival 15 minutes,[2]; p.o. 50 mg/kg,1/10
same,Survival 16 hours,[2]; p.o. 50 mg/kg,0/0
same,Occurrence of arrhythmias: Brady,[2]; p.o. 50 mg/kg,1/10
same,Occurrence of arrhythmias: Free (no arrhythmia was observed),[2]; p.o. 50 mg/kg,0/0
same,Occurrence of arrhythmias: Other,[2]; p.o. 50 mg/kg,4/40
same,Occurrence of arrhythmias: VF,[2]; p.o. 50 mg/kg,1/100
same,Occurrence of arrhythmias: VT,[2]; p.o. 50 mg/kg,10/100
same,Arrhythmia Score,[2]; p.o. 50 mg/kg,5.90 ± 0.10
same,mortality in clinical trials (in words),[3],increase in mortality ascribable to the proarrhythmic effect
same,"Complete survival, animals",[4],5/10
same,"Complete survival, percent",[4],50%
same,ES (extrasystole),[4]; occlusion,128 ± 14
same,"VF (ventricular fibrillation), animals",[4]; occlusion,3/10
same,"VF (ventricular fibrillation), percent",[4]; occlusion,30%
same,"VT (ventricular tachycardia), animals",[4]; occlusion,5/10
same,"VT (ventricular tachycardia), percent",[4]; occlusion,50%
same,"VF (ventricular fibrillation), animals",[4]; reperfusion,2/7
same,"VF (ventricular fibrillation), percent",[4]; reperfusion,29%
"Cc1cccc(C)c1OCC(C)NCCc1ccc(NS(C)(=O)=O)cc1.Cl (stereo not shown) [Example 22, N-[4-[2-[N-[2-(2,6-Dimethylphenoxy)-1-methylethyl]amino]-ethyl]phenyl]methanesulfonamide hydrochloride]",activation at 10 µM,"[1]; 10 μM, 1 Hz, read-out: Prolongation (%) of ERP",12.3%
same,activation at 10 µM,"[1]; 10 μM, 1 Hz, read-out: Prolongation (%) of impulse conduction time",22.6%
same,activation at 10 µM,"[1]; 10 μM, 3 Hz, read-out: Prolongation (%) of ERP",18.1%
same,activation at 10 µM,"[1]; 10 μM, 3 Hz, read-out: Prolongation (%) of impulse conduction time",28.3%
same,APA (amplitude of the action potential),[5]; 5 μM,100 mV
same,APD50 (time of 50% repolarization),[5]; 5 μM,215 ms
same,APD90 (time of 90% repolarization),[5]; 5 μM,260 ms
same,RP (resting potential),[5]; 5 μM,-80 mV
same,Recovery Ampl,[5]; 5 μM,136.3 V/s
same,Recovery Ampl/Plateau,[5]; 5 μM,0.58
same,Recovery Plateau,[5]; 5 μM,232.8 V/s
same,Vmax (maximum rate of depolarization),[5]; 5 μM,159 V/s
same,Trecovery (recovery time constant of Vmax),[5]; 5 μM,337.8 ms
same,effect on duration of the action potential (in words),[5]; concentrations of Table 2,simultaneous prolongation of duration of the action potential (APD)
same,effect on Vmax (in words),"[5]; rapid recovery kinetics, concentrations of Table 2",mexiletine-like inhibition of Vmax
"Cc1cccc(C)c1OCC(C)N.Cl (stereo not shown) [Mexiletine, 2-(2,6-dimethylphenoxy)-1-methylethylamine hydrochloride, reference compound]",activation at 10 µM,"[1]; read-out: Prolongation (%) of ERP, 10 μM, 1 Hz",-1.9 ± 1.7%
same,activation at 10 µM,"[1]; read-out: Prolongation (%) of ERP, 10 μM, 3 Hz",8.9%
same,activation at 10 µM,"[1]; read-out: Prolongation (%) of impulse conduction time, 10 μM, 1 Hz",3.9%
same,activation at 10 µM,"[1]; read-out: Prolongation (%) of impulse conduction time, 10 μM, 3 Hz",18.8%
same,effect on impulse conduction (in words),[1]; concentrations of Table 1,exerted an effect mainly on impulse conduction
same,APA (amplitude of the action potential),[5]; 10 μM,115 mV
same,APD50 (time of 50% repolarization),[5]; 10 μM,244 ms
same,APD90 (time of 90% repolarization),[5]; 10 μM,270 ms
same,RP (resting potential),[5]; 10 μM,-92 mV
same,Recovery Ampl,[5]; 10 μM,84.0 V/s
same,Recovery Ampl/Plateau,[5]; 10 μM,0.45
same,Recovery Plateau,[5]; 10 μM,186.5 V/s
same,Vmax (maximum rate of depolarization),[5]; 10 μM,193 V/s
same,Trecovery (recovery time constant of Vmax),[5]; 10 μM,214.1 ms
